Results on two compounds are retold here after publication PMC11887451, “Leveraging Immunogenic Cell Death to Enhance the Immune Response against Malignant Pleural Mesothelioma Tumors” (Journal of the American Chemical Society, 2025).

Assay [1] deals with patient-derived Meso84 cell line (sarcomatoid MPM). Put plainly: MTT cytotoxicity assay, 72 h, Meso84. Type of assay: cell-based, human. Conditions: exposure time 72 h.
Description: (§1) Human malignant mesothelioma cancer cell lines JU77 and LO68 were obtained from Cell Bank Australia (Children's Medical Research Institute, Westmead, Australia). Mouse malignant mesothelioma cancer cell line AB12, human nonmalignant mesothelioma cancer cell line Met5A (mesothelial cells), mouse macrophage cell line J774 and human monocytic cell line THP-1 were obtained from American Type Culture Collection (ATCC) (Rockville, MD, USA). Human malignant mesothelioma cell lines VMC23 (epithelial), Meso82 (sarcomatous), Meso92 (biphasic), were kindly provided by Prof. Walter Berger (Medical University of Vienna). All cells except for J774 were cultured in RPMI and J774 cells were cultured in DMEM. Both types of media were supplemented with 10% FBS and 1% penicillin-streptomycin (10,000 U/mL). Cells were grown in tissue culture flasks (75 cm2 and 25 cm2, SPL Life Sciences Co., Ltd., Korea). All cell lines were grown at 37 °C in a humidified atmosphere of 95% air and 5% CO 2 and passaged when they reached 80–90% confluency. All Au stock solutions were prepared in 1% DMSO in the respected medium, ensuring that cell viability was not inhibited.
(§2) The cytotoxicity of compounds was determined using an MTT colorimetric test. The cells were harvested from culture flasks by trypsinization and seeded into Cellstar 96 -well microculture plates (Greiner Bio -One) at the seeding density of 6000 cells per well (6 × 10^4 cells/mL). After
(§3) the cells were allowed to resume exponential growth for 16 h, they were exposed to drugs at
(§4) different concentrations in media for 72 h. The drugs were diluted in a complete medium at the desired concentration added to each well (100 μL) and serially diluted in other wells. After exposure for 72 h, the media was replaced with MTT in media (5 mg/mL, 100 μL/well) and
(§5) incubated for an additional 50 min. Subsequently, the medium was aspirated, and the purple formazan crystals formed in viable cells were dissolved in DMSO (100 μL/well). Optical densities were measured at 570 nm using a BioTek Synergy H1 microplate and MultiskanTM SkyHigh plate readers. The quantity of viable cells was expressed in terms of treated/control (T/C) values in comparison to untreated control cells, and 50% inhibitory concentrations (IC 50) were calculated from concentration-effect curves by interpolation. An evaluation was based on means from at least three independent experiments, each comprising three replicat es per
(§6) DMSO had not impact on the cell viability at the concentrations used.
Assay [2] relates to patient-derived VMC23 cell line (epithelioid MPM). Briefly: MTT cytotoxicity assay, 72 h, VMC23. Format: cell-based, human. Conditions: exposure time 72 h. (Tetrazolium dyes change colour on reduction, which living cells bring about.)
The subject of assay [3] is murine malignant mesothelioma cell line AB12. Briefly: MTT cytotoxicity assay, 72 h, AB12. Conditions: exposure time 72 h. Type of assay: cell-based, mouse.
The test system of assay [4] is AB12 cells phagocytosed by J774 macrophages. Put plainly: Phagocytosis assay, flow cytometry. Format: cell-based, mouse. The conditions noted are these: AB12 treated 100 min at 5 × IC50 (72 h), 16 h with J774 macrophages. A digest of the protocol: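 AB12 cells labelled with CellTracker Red CMTPX and J774 macrophages with CellTracker Green CMFDA; AB12 cells drug-treated 100 min, then co-incubated with macrophages 16 h at 37°C. Phagocytosis % by flow cytometry as double-positive macrophages over total macrophages.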
(Flow cytometry measures light scatter and fluorescence of single cells or particles in a stream.)

The test system of assay [5] is human nonmalignant mesothelioma cell line Met5A. Put plainly: MTT cytotoxicity assay, 72 h, Met5A. Type of assay: cell-based. Conditions: exposure time 72 h.
Description: Cell lines and culture conditions
Mouse malignant mesothelioma cancer cell line AB12, human nonmalignant mesothelioma cancer cell line Met5A (mesothelial cells), mouse macrophage cell line J774 and human monocytic cell line THP-1 were obtained from American Type Culture Collection (ATCC) (Rockville, MD, USA). Human malignant mesothelioma cell lines VMC23 (epithelial), Meso82 (sarcomatous), Meso92 (biphasic), were kindly provided by Prof. Walter Berger (Medical University of Vienna). All cells except for J774 were cultured in RPMI and J774 cells were cultured in DMEM. Both types of media were supplemented with 10% FBS and 1% penicillin-streptomycin (10,000 U/mL). Cells were grown in tissue culture flasks (75 cm2 and 25 cm2, SPL Life Sciences Co., Ltd., Korea). All cell lines were grown at 37 °C in a humidified atmosphere of 95% air and 5% CO 2 and passaged when they reached 80–90% confluency. All Au stock solutions were prepared in 1% DMSO in the respected medium, ensuring that cell viability was not inhibited. The Au concentration in the stock solutions was confirmed through inductively coupled plasma optical emission spectrometry. The stock solution of pemetrexed (10 mM) was prepared in Milli -Q water.
Inhibition of c ell viability assay
as §2, §3, §4, §5
The subject of assay [6] is human malignant mesothelioma cell line JU77. Briefly: MTT cytotoxicity assay, 72 h, JU77. Type of assay: cell-based. The conditions noted are these: exposure time 72 h.
The subject of assay [7] is patient-derived Meso92 cell line (biphasic MPM). Briefly: MTT cytotoxicity assay, 72 h, Meso92. Type of assay: cell-based, human. Conditions: exposure time 72 h.
Assay [8] relates to human malignant mesothelioma cell line LO68. Briefly: MTT cytotoxicity assay, 72 h, LO68. Conditions: exposure time 72 h. Format: cell-based.
Description: as §1, §2, §3, §4, §5, §6
For assay [9], the system named is panel of seven MPM cell lines. Put plainly: MTT cytotoxicity assay, 72 h, whole panel (summary ranges). Format: cell-based. Conditions: read-out: cytotoxicity range across the cell line panel.
Description: Human malignant mesothelioma cancer cell lines JU77 and LO68 were obtained from Cell Bank Australia (Children's Medical Research Institute, Westmead, Australia). Mouse malignant mesothelioma cancer cell line AB12, human nonmalignant mesothelioma cancer cell line Met5A (mesothelial cells), mouse macrophage cell line J774 and human monocytic cell line THP-1 were obtained from American Type Culture Collection (ATCC) (Rockville, MD, USA). Human malignant mesothelioma cell lines VMC23 (epithelial), Meso82 (sarcomatous), Meso92 (biphasic), were kindly provided by Prof. Walter Berger (Medical University of Vienna). All cells except for J774 were cultured in RPMI and J774 cells were cultured in DMEM. Both types of media were supplemented with 10% FBS and 1% penicillin-streptomycin (10,000 U/mL). Cells were grown in tissue culture flasks (75 cm2 and 25 cm2, SPL Life Sciences Co., Ltd., Korea). All cell lines were grown at 37 °C in a humidified atmosphere of 95% air and 5% CO 2 and passaged when they reached 80–90% confluency. All Au stock solutions were prepared in 1% DMSO in the respected medium, ensuring that cell viability was not inhibited. […]
The cytotoxicity of compounds was determined using an MTT colorimetric test. […]
incubated for an additional 50 min. […] Optical densities were measured at 570 nm using a BioTek Synergy H1 microplate and MultiskanTM SkyHigh plate readers. […]

With `F[P-](F)(F)(F)(F)F.c1cc[c]2c(c1)Nc1cccc[n+]1[Au-]21[S]C(=[N+]2CCCCCC2)[S]1` (centres unmarked) [5G], the IC50 in assay [1] was 300 ± 70 nM; in [2], 730 ± 160 nM; in assay [3], 330 ± 90 nM; in [5] it was 250 ± 50 nM; in assay [6] it was 220 ± 40 nM; in [7], 350 ± 40 nM. The compound further returned an IC50 in assay [8] of 430 ± 50 nM. Moreover, the “phagocytosis / ICD response (in words)” value in assay [4] is listed as “substantial phagocytosis”.
Consider `Nc1nc2[nH]cc(CCc3ccc(C(=O)N[C@@H](CCC(=O)O)C(=O)O)cc3)c2c(=O)[nH]1` [Pemetrexed, pemetrexed, reference compound], for which the IC50 in assay [1] (Homo sapiens) was 27 ± 2 nM; in assay [2] (Homo sapiens) it was 170 ± 40 nM; in [3] (Mus musculus) it was 23 ± 7 nM; in assay [5] (Homo sapiens, MeT-5A), 300 ± 100 nM; in [6] (Homo sapiens), 73 ± 14 nM; in [9], 23 to 300 nM. Besides, the values for the IC50 in assay [7] (Homo sapiens) and in assay [8] (Homo sapiens) were 140 ± 40 nM and 94 ± 28 nM, respectively. Further, in assay [4], the “phagocytosis / ICD response (in words)” value was “failed to initiate any ICD response”.
